Measurements taken from the NIST ThermoML archive (doi:10.1016/j.fluid.2016.02.009).
± gives the expanded uncertainty stated by the source.

Settings: Liquid, Vibrating tube method

COC(C)(C)C [2-methoxy-2-methylpropane]
mass density [kg/m3]
Settings | 283.15 K | 288.15 K | 293.15 K | 298.15 K | 303.15 K | 308.15 K | 313.15 K | 318.15 K | 323.15 K
100 kPa | 750.94 ± 0.3 | 745.79 ± 0.3 | 740.59 ± 0.3 | 735.34 ± 0.3 | 730.04 ± 0.3 | 724.69 ± 0.3 | 719.29 ± 0.3 | 713.84 ± 0.3 | 708.45 ± 0.3
5000 kPa | 756.29 ± 0.33 | 751.33 ± 0.33 | 746.34 ± 0.33 | 741.32 ± 0.33 | 736.27 ± 0.33 | 731.19 ± 0.33 | 726.07 ± 0.34 | 720.92 ± 0.34 | 715.73 ± 0.34
10000 kPa | 761.29 ± 0.36 | 756.52 ± 0.36 | 751.7 ± 0.37 | 746.89 ± 0.37 | 742.05 ± 0.37 | 737.18 ± 0.37 | 732.27 ± 0.37 | 727.36 ± 0.38 | 722.39 ± 0.38
15000 kPa | 765.93 ± 0.4 | 761.32 ± 0.4 | 756.68 ± 0.4 | 752.04 ± 0.4 | 747.37 ± 0.41 | 742.69 ± 0.41 | 737.97 ± 0.41 | 733.26 ± 0.41 | 728.51 ± 0.42
20000 kPa | 770.32 ± 0.43 | 765.86 ± 0.43 | 761.35 ± 0.44 | 756.85 ± 0.44 | 752.37 ± 0.44 | 747.84 ± 0.44 | 743.29 ± 0.45 | 738.74 ± 0.45 | 734.2 ± 0.45
25000 kPa | 774.48 ± 0.46 | 770.15 ± 0.47 | 765.77 ± 0.47 | 761.42 ± 0.47 | 757.05 ± 0.48 | 752.67 ± 0.48 | 748.27 ± 0.48 | 743.91 ± 0.49 | 739.51 ± 0.49
30000 kPa | 778.47 ± 0.49 | 774.24 ± 0.5 | 770.01 ± 0.5 | 765.75 ± 0.51 | 761.51 ± 0.52 | 757.26 ± 0.52 | 752.99 ± 0.53 | 748.75 ± 0.53 | 744.49 ± 0.54
35000 kPa | 782.29 ± 0.53 | 778.15 ± 0.54 | 774 ± 0.54 | 769.88 ± 0.55 | 765.74 ± 0.56 | 761.6 ± 0.56 | 757.46 ± 0.57 | 753.35 ± 0.57 | 749.2 ± 0.58
40000 kPa | 785.94 ± 0.57 | 781.89 ± 0.57 | 777.85 ± 0.58 | 773.81 ± 0.59 | 769.79 ± 0.59 | 765.75 ± 0.6 | 761.71 ± 0.61 | 757.7 ± 0.61 | 753.67 ± 0.62
45000 kPa | 789.45 ± 0.6 | 785.49 ± 0.61 | 781.54 ± 0.62 | 777.6 ± 0.62 | 773.65 ± 0.63 | 769.71 ± 0.64 | 765.77 ± 0.65 | 761.86 ± 0.65 | 757.92 ± 0.66
50000 kPa | 792.86 ± 0.64 | 788.97 ± 0.64 | 785.09 ± 0.65 | 781.23 ± 0.66 | 777.36 ± 0.67 | 773.49 ± 0.68 | 769.65 ± 0.68 | 765.83 ± 0.69 | 761.98 ± 0.7
55000 kPa | 796.13 ± 0.67 | 792.3 ± 0.68 | 788.51 ± 0.69 | 784.71 ± 0.69 | 780.95 ± 0.7 | 777.14 ± 0.71 | 773.39 ± 0.72 | 769.63 ± 0.73 | 765.85 ± 0.74
60000 kPa | 799.29 ± 0.7 | 795.55 ± 0.71 | 791.81 ± 0.72 | 788.1 ± 0.73 | 784.37 ± 0.74 | 780.65 ± 0.75 | 776.97 ± 0.76 | 773.29 ± 0.76 | 769.61 ± 0.77
65000 kPa | 802.37 ± 0.73 | 798.67 ± 0.74 | 795 ± 0.75 | 791.36 ± 0.76 | 787.7 ± 0.77 | 784.04 ± 0.78 | 780.41 ± 0.79 | 776.82 ± 0.8 | 773.22 ± 0.81
